Test results taken from ChEMBL document CHEMBL1795288, “Lignans and neolignans from Sinocalamus affinis and their absolute configurations” (2011).
The source made the active and inactive calls. The rule behind the calls is not given here.

Columns and labels:
[1] = test system: Peritoneal macrophage cell; assay: Inhibition of LPS-induced nitric oxide production in C57BL/6J mouse peritoneal macrophages at 10 uM after 24 hrs by Griess reaction; type: functional
MCF7 = assay: Cytotoxicity against human MCF7 cells at 10 uM after 96 hrs by MTT assay; type: functional, cell-based
KETR3 = assay: Cytotoxicity against human Ketr3 cells at 10 uM after 96 hrs by MTT assay; type: functional, cell-based
WB-F344 = assay: Hepatoprotective activity against DL-galactosamine-induced cell damage in rat WB-F344 cells at 10 uM after 24 hrs by MTT assay; type: functional, cell-based
Liver microsomes = assay: Antioxidant activity in rat Liver microsome assessed as inhibition of Fe2+-cystine-induced lipid peroxidation at 10 uM; type: functional
HCT-8 = assay: Cytotoxicity against human HCT8 cells at 10 uM after 96 hrs by MTT assay; type: functional, cell-based
BGC-823 = assay: Cytotoxicity against human BGC823 cells at 10 uM after 96 hrs by MTT assay; type: functional, cell-based
A549 = assay: Cytotoxicity against human A549 cells at 10 uM after 96 hrs by MTT assay; type: functional, cell-based
[2] = test system: Human immunodeficiency virus 1; assay: Antiviral activity against HIV1 NL4-3 infected in human 293T cells assessed as inhibition of viral replication at 10 uM after 48 hrs by luciferase reporter gene assay; type: functional, organism-based
Bel-7402 = assay: Cytotoxicity against human Bel7402 cells at 10 uM after 96 hrs by MTT assay; type: functional, cell-based
PC-12 = assay: Neuroprotective activity against serum deprivation-induced toxicity in rat PC12 cells assessed as increase in cell viability at 10 uM after 48 hrs by MTT assay; type: functional

Row | Compound | inhibition at 10 µM [1] | Activity (MCF7) | Activity (KETR3) | Activity (WB-F344) | inhibition (Liver microsomes) | Activity (HCT-8) | Activity (BGC-823) | Activity (A549) | inhibition [2] | Activity (Bel-7402) | Activity (PC-12)
1 | COc1cc([C@@H](O)[C@H](CO)Oc2c(OC)cc([C@@H]3OC[C@@H]4[C@H]3CO[C@H]4c3cc(OC)c(O[C@@H](CO)[C@H](O)c4ccc(O)c(OC)c4)c(OC)c3)cc2OC)ccc1O | < 30% | inactive | inactive | inactive | inactive | inactive | inactive | inactive | inactive | inactive | 
2 | COc1cc([C@H](O)[C@@H](CO)Oc2c(OC)cc([C@@H]3Oc4c(OC)cc(C=O)cc4[C@H]3CO)cc2OC)ccc1O | < 30% | inactive | inactive | inactive | inactive | inactive | inactive | inactive | inactive | inactive | 
3 | COc1cc(-c2cc(=O)c3c(O)cc(O)cc3o2)cc(OC)c1O[C@@H](CO)[C@@H](O)c1ccc(O)cc1 | 84.2% | inactive | inactive | inactive | inactive | inactive | inactive | inactive | inactive | inactive | 107.2%
4 | COc1cc([C@@H]2Oc3c(OC)cc(/C=C/CO)cc3[C@H]2CO)cc(OC)c1OC | < 30% | inactive | inactive | inactive | inactive | inactive | inactive | inactive | inactive | inactive | 
5 | COc1cc(C(=O)[C@@H]2CO[C@H](c3cc(OC)c(O)c(OC)c3)[C@H]2CO)cc(OC)c1O | < 30% | inactive | inactive | inactive | inactive | inactive | inactive | inactive | inactive | inactive | 
6 | COc1cc([C@H](O)[C@H](CO)Oc2c(OC)cc([C@@H]3OC[C@@H]4[C@H]3CO[C@H]4c3cc(OC)c(O[C@@H](CO)[C@@H](O)c4ccc(O)c(OC)c4)c(OC)c3)cc2OC)ccc1O | < 30% | inactive | inactive | inactive | inactive | inactive | inactive | inactive | inactive | inactive | 
7 | COc1cc([C@@H]2OC[C@@H]3[C@H]2CO[C@H]3c2cc(OC)c(OC)c(OC)c2)cc(OC)c1O | < 30% | inactive | inactive | inactive | inactive | inactive | inactive | inactive | inactive | inactive | 
8 | COc1cc(-c2cc(=O)c3c(O)cc(O)cc3o2)cc(OC)c1O[C@@H](CO)[C@H](O)c1ccc(O)cc1 | < 30% | inactive | inactive | inactive | inactive | inactive | inactive | inactive | inactive | inactive | 80.7%
9 | C[C@@H]1C[C@H]2[C@@H]3CCC4=CC(=O)C=C[C@]4(C)[C@@]3(F)[C@@H](O)C[C@]2(C)[C@@]1(O)C(=O)CO [DEXAMETHASONE] | 61.6% |  |  |  |  |  |  |  |  |  | 
10 | COc1cc([C@@H]2O[C@@H](c3cc(OC)c(OC)c(OC)c3)[C@H](CO)[C@H]2CO)cc(OC)c1O | < 30% | inactive | inactive | inactive | inactive | inactive | inactive | inactive | inactive | inactive | 
11 | COc1cc([C@@H](O)[C@H](CO)Oc2c(OC)cc(-c3cc(=O)c4c(O)cc(O)cc4o3)cc2OC)ccc1O | < 30% | inactive | inactive | inactive | inactive | inactive | inactive | inactive | inactive | inactive | 
12 | COc1cc([C@H](O)[C@H](CO)Oc2c(OC)cc(O)cc2OC)ccc1O | < 30% | inactive | inactive | inactive | inactive | inactive | inactive | inactive | inactive | inactive | 
13 | COc1cc([C@H](O)[C@H](CO)Oc2c(OC)cc(C(=O)O)cc2OC)ccc1O | < 30% | inactive | inactive | inactive | inactive | inactive | inactive | inactive | inactive | inactive | 
14 | COc1cc2c(c(OC)c1O)[C@H]1c3c(cc(OC)c(O)c3OC)OC[C@@H](C2)[C@H]1CO | < 30% | inactive | inactive | inactive | inactive | inactive | inactive | inactive | inactive | inactive | 
15 | COc1cc([C@H](O)[C@H](CO)Oc2c(OC)cc(-c3cc(=O)c4c(O)cc(O)cc4o3)cc2OC)ccc1O [SALCOLIN B] | 71.7% | inactive | inactive | inactive | inactive | inactive | inactive | inactive | inactive | inactive | 97.6%
